# Experimental data taken from patent publication US7417069B2, “Halogenated triptolide derivatives as immunomodulators and anticancer agents” (priority 2003, dated 2008).
# “Also recorded” adds a separate entry of the source.
# Key:
# [1] = test system: Jurkat human T lymphoma cell line; assay: Annexin V apoptosis assay; format: cell-based; settings: induction of apoptosis in Jurkat cells, 24 hours, relative to triptolide (FIGS. 3A-B)
# Procedure: Test samples were diluted to 1 mM in complete tissue culture medium (RPMI 1640 medium plus 5% heat-inactivated fetal calf serum, 1% HEPES, 1% pen/strep, 1% glutamine). Aliquots were placed in microculture plates and serial dilutions were prepared so that the final concentration would encompass the range of 2 to 6,000 nM with half-log increments. Cells from an exponentially expanding culture of the Jurkat human T lymphoma cell line (#TIB-152 obtained from American Type Culture Collection, Manassas, Va.) were harvested, washed once by centrifugation, re-suspended in complete tissue culture medium, and further diluted to a concentration of 1×10^6 cells/ml. A volume of 100 μl of the cells (1×10^5 cells) was added to wells containing 100 μl of the diluted compounds, and the plates were incubated at 37° C. in a 5% CO2 incubator.
# After 24 hours, the plates were centrifuged to pellet the cells, and the cells were washed twice with 2% heat-inactivated fetal calf serum in PBS. […] The contents of the wells were individually transferred into test tubes, and apoptosis was analyzed using a FACSCalibur flow cytometer (BD Immunocytometry Systems, San Jose, Calif.). Cells positive for Annexin V binding were considered to be apoptotic, and the data were calculated as percent apoptotic cells. […]
# [2] = test system: IL-2 production in Jurkat cells; assay: IL-2 production assay (immunosuppression assay); format: cell-based, human; settings: for fold less potent than triptolide in the immunosuppression assay: inhibition of IL-2 production in Jurkat cells, relative to triptolide (FIGS. 4A-B)
# Procedure: Test samples were diluted to 1 mM in complete tissue culture medium. Aliquots were placed in microculture plates that had been coated with anti-CD3 antibody (used to stimulate the production of IL-2 by Jurkat cells), and serial dilutions were prepared so that the final concentration would encompass the range of 0.001 to 10,000 nM in log increments. Cells from an exponentially expanding culture of Jurkat human T cell line (#TIB-152 obtained from American Type Culture Collection, Manassas, Va.) were harvested, washed once by centrifugation, re-suspended in complete tissue culture medium, and diluted to a concentration of 2×10^6 cells/ml. A volume of 50 μl of Jurkat cells (1×10^5 cells) was added to wells containing 100 μl of the diluted compounds, 50 μl of PMA (10 ng/ml) was added to each well, and the plates were incubated at 37° C. in a 5% CO2 incubator. After 24 hours, the plates were centrifuged to pellet the cells, 150 μl of supernatant was removed from each well, and the samples were stored at −20° C. The stored supernatants were analyzed for human IL-2 concentration using the Luminex 100 (Luminex Corporation, Austin, Tex.), Luminex microspheres coupled with anti-IL-2 capture antibody, and fluorochrome-coupled anti-IL-2 detection antibody. The data were expressed as pg/ml of IL-2.
# The data were plotted as the concentration of compound versus IL-2 concentration. The results for PG763 (14-deoxy-14α-fluorotdptolide), compared with PG490 (triptolide) and a solvent control, are given in FIG. 2. Comparative data for other 14-substituted triptolides, 14α-hydroxytriptolide (also referred to as epitriptolide; designated PG524) and 14β-(methylthio)methyltriptolide (designated PG691), compared with PG490 (triptolide), are given in FIGS. 4A-B.
# [3] = test system: human T cell lymphoma (Jurkat) cells; assay: Cytotoxicity (MTT) assay; format: cell-based; settings: 24 h, in comparison with triptolide (FIG. 1)
# Procedure: Test compounds were dissolved in DMSO at a concentration of 20 mM. Further dilutions were done in RPMI 1640 medium (GIBCO, Rockville, Md.) supplemented with 10% Fetal Calf Serum (HyClone Laboratories, Logan, Utah).
# Cytotoxicity of the compounds was determined in a standard MTT assay using Cell Proliferation Kit I (#1 465 007, Roche Diagnostics, Mannheim, Germany). Briefly, human T cell lymphoma (Jurkat) cells (4×10^5 per well) were cultured for 24 h, in 96-well tissue culture plates, in the presence of serial three-fold dilutions of test compounds or medium containing the same concentration of DMSO as in the test samples at each dilution point. The cultures were then supplemented with 10 μl/well MTT reagent for 4h and then with 0.1 ml/well solubilizing reagent for an additional 16 h. Optical density at 570 nm (OD570) was measured on a ThermoScan™ microplate reader (Molecular Devices, Menlo Park, Calif.). The data is presented as OD570 values versus concentration of the compounds. The results for PG763 (14-deoxy-14α-fluorotriptolide), compared with PG490 (triptolide) and a medium control, are given in FIG. 1.
SMILES,fold less potent than triptolide in the apoptosis assay [1] [fold],fold less potent than triptolide in the immunosuppression assay [2],cytotoxicity in Jurkat cells [3],"inhibition of IL-2 production in Jurkat cells ([2]; anti-CD3 and PMA stimulated, 24 hours, in comparison with triptolide (FIG. 2))"
"CSCOC1C2(C(C)C)OC2C2OC23C2(C)CCC4=C(COC4=O)C2CC2OC213 (stereo not drawn) [14β-(methylthio)methyl triptolide, 14-β-(methylthio)methyl triptolide]",~40,approximately 60 fold,–,–
"CC(C)[C@]12O[C@H]1[C@@H]1O[C@]13[C@]1(O[C@H]1C[C@H]1C4=C(CC[C@@]13C)C(=O)OC4)[C@H]2F [PG763, 14-deoxy-14α-fluorotriptolide]",–,–,"nearly equivalent to that of triptolide; also recorded: in a dose-dependent manner, at concentrations comparable to those in similar assays using triptolide","nearly equivalent to that of triptolide; also recorded: in a dose-dependent manner, at concentrations comparable to those in similar assay using triptolide"
"CC(C)[C@]12O[C@H]1[C@@H]1O[C@]13[C@]1(O[C@H]1C[C@H]1C4=C(CC[C@@]13C)C(=O)OC4)[C@H]2O [epitriptolide, 14-α-hydroxytriptolide]",~25,approximately 30 fold,–,–
